Experimental data from article PMC12396409, “Screening and hit evaluation of a microbial metabolite library against the pathogenic Plasmodium falciparum and Toxoplasma gondii parasites” (International Journal for Parasitology: Drugs and Drug …, 2025).
Where two headings read alike, the source gives them in different places.

Tests used:
[1] = test system: P. falciparum 3D7 parasites; experiment: P. falciparum growth inhibition assay, 1-cycle (72 h treatment), SYBR DNA staining (library screen at 2 μg/mL and dose-response); format: cell-based, Plasmodium falciparum; conditions: for activity at 2 µg/mL: Plasmodium falciparum, 3D7, 72 h
[2] = test system: P. falciparum 3D7 parasites; experiment: P. falciparum growth inhibition assay, 2-cycle (120 h treatment), delayed-death screen and dose-response; format: cell-based, Plasmodium falciparum; conditions: for activity at 2 µg/mL: Plasmodium falciparum, 3D7, 120 h
[3] = test system: T. gondii RH strain (RH-Tub-eYFP) tachyzoites; experiment: microbe, parasite or virus in culture; format: cell-based, Toxoplasma gondii; conditions: 72 h; for percent parasite growth at 2 µg/mL: Toxoplasma gondii
[4] = library screen at 2 μg/mL, 72 h, % growth, replicate 1
[5] = library screen at 2 μg/mL, 72 h, % growth, replicate 2
[6] = library screen at 2 μg/mL, 120 h, % growth, replicate 1
[7] = library screen at 2 μg/mL, 120 h, % growth, replicate 2
[8] = library screen at 2 μg/mL, % growth, replicate 1
[9] = library screen at 2 μg/mL, % growth, replicate 2

SMILES: CC1=CC[C@H]2C(C)(C)CCC[C@]2(C)[C@H]1CO [Drimenol]
- Pf_72h_%Growth_Rep1 [1, 4]: 88.25%
- Pf_72h_%Growth_Rep2 [1, 5]: 89.37%
- Pf_120h_%Growth_Rep1 [2, 6]: 92.79%
- Pf_120h_%Growth_Rep2 [2, 7]: 93.83%
- Tg_72h_%Growth_Rep1 [3, 8]: 153.93%
- Tg_72h_%Growth_Rep2 [3, 9]: 98.02%

SMILES: Oc1cc(O)cc(O)c1 [BIA-P1379]
- Pf_72h_%Growth_Rep1 ([1]; P. falciparum 3D7, 72 h, parasite screen at 2 μg/mL, % growth, replicate 1): 72.55%
- Pf_72h_%Growth_Rep2 ([1]; P. falciparum 3D7, 72 h, parasite screen at 2 μg/mL, % growth, replicate 2): 29.88%
- Pf_120h_%Growth_Rep1 ([2]; P. falciparum 3D7, 120 h, parasite screen at 2 μg/mL, % growth, replicate 1): 15.44%
- Pf_120h_%Growth_Rep2 ([2]; P. falciparum 3D7, 120 h, parasite screen at 2 μg/mL, % growth, replicate 2): 11.00%
- Tg_72h_%Growth_Rep1 ([3]; T. gondii, parasite screen at 2 μg/mL, % growth, replicate 1): 123.57%
- Tg_72h_%Growth_Rep2 ([3]; T. gondii, parasite screen at 2 μg/mL, % growth, replicate 2): 91.75%

SMILES: O=C1N[C@@H](Cc2c[nH]c3ccccc23)C(=O)N[C@H]1Cc1c[nH]c2ccccc12 [Cyclo(L-Trp-L-Trp)]
- Pf_72h_%Growth_Rep1 ([1]; P. falciparum, 72 h, screen at 2 μg/mL, replicate 1): 85.34%
- Pf_72h_%Growth_Rep2 ([1]; P. falciparum, 72 h, screen at 2 μg/mL, replicate 2): 84.68%
- Pf_120h_%Growth_Rep1 ([2]; P. falciparum, 120 h, screen at 2 μg/mL, replicate 1): 96.17%
- Pf_120h_%Growth_Rep2 ([2]; P. falciparum, 120 h, screen at 2 μg/mL, replicate 2): 91.69%
- Tg_72h_%Growth_Rep1 ([3]; T. gondii, screen at 2 μg/mL, replicate 1): 161.12%
- Tg_72h_%Growth_Rep2 ([3]; T. gondii, screen at 2 μg/mL, replicate 2): 99.00%

SMILES: Cc1cc(O)c2c(c1)C(=O)C13C(=C2O)C(=O)C2C(O)C1C1C(O)C3C(=O)C3=C(O)c4c(O)cc(C)cc4C(=O)C321 (stereo not drawn) [Rugulosin + form]
- Pf_72h_%Growth_Rep1 ([1]; P. falciparum, 72 h, parasite screen 2 μg/mL, % growth, replicate 1): 87.73%
- Pf_72h_%Growth_Rep2 ([1]; P. falciparum, 72 h, parasite screen 2 μg/mL, % growth, replicate 2): 120.80%
- Pf_120h_%Growth_Rep1 ([2]; P. falciparum, 120 h, parasite screen 2 μg/mL, % growth, replicate 1): 82.55%
- Pf_120h_%Growth_Rep2 ([2]; P. falciparum, 120 h, parasite screen 2 μg/mL, % growth, replicate 2): 131.94%
- Tg_72h_%Growth_Rep1 ([3]; T. gondii, parasite screen 2 μg/mL, % growth, replicate 1): 114.00%
- Tg_72h_%Growth_Rep2 ([3]; T. gondii, parasite screen 2 μg/mL, % growth, replicate 2): 82.13%

SMILES: CNC1=NC(=O)C(C(C)c2c[nH]c3ccccc23)O1 (stereo not drawn) [BIA-I1040]
- Pf_72h_%Growth_Rep1 ([1]; P. falciparum 3D7, 72 h, library screen at 2 μg/mL, % growth, replicate 1): 33.91%
- Pf_72h_%Growth_Rep2 ([1]; P. falciparum 3D7, 72 h, library screen at 2 μg/mL, % growth, replicate 2): 55.84%
- Pf_120h_%Growth_Rep1 ([2]; P. falciparum 3D7, 120 h, library screen at 2 μg/mL, % growth, replicate 1): 17.78%
- Pf_120h_%Growth_Rep2 ([2]; P. falciparum 3D7, 120 h, library screen at 2 μg/mL, % growth, replicate 2): 16.99%
- Tg_72h_%Growth_Rep1 ([3]; T. gondii RH, library screen at 2 μg/mL, % growth, replicate 1): 45.17%
- Tg_72h_%Growth_Rep2 ([3]; T. gondii RH, library screen at 2 μg/mL, % growth, replicate 2): 47.91%

SMILES: CC(CCCCCCCCCCCCCCOC1OC(CO)C(O)C(O)C1O)C(O)=C1C(=O)C(C)N(C)C1=O (stereo not drawn) [Epicoccamide]
- Pf_72h_%Growth_Rep1 [1, 4]: 87.59%
- Pf_72h_%Growth_Rep2 [1, 5]: 88.25%
- Pf_120h_%Growth_Rep1 [2, 6]: 94.92%
- Pf_120h_%Growth_Rep2 [2, 7]: 97.01%
- Tg_72h_%Growth_Rep1 [3, 8]: 135.91%
- Tg_72h_%Growth_Rep2 [3, 9]: 106.99%

SMILES: COc1cc(-c2cc3c(c(=O)o2)C[C@]2(O)[C@@]4(C)C(=O)C=CC(C)(C)[C@]4(O)CC[C@@]2(C)O3)cc(OC)c1OC [Territrem B]
- activity at 2 µg/mL ([1]; P. falciparum, 72 h, screen at 2 μg/mL, replicate 1, read-out: Pf_72h_%Growth_Rep1): 63.6%
- activity at 2 µg/mL ([1]; P. falciparum, 72 h, screen at 2 μg/mL, replicate 2, read-out: Pf_72h_%Growth_Rep2): 64.7%
- activity at 2 µg/mL ([2]; P. falciparum, 120 h, screen at 2 μg/mL, replicate 1, read-out: Pf_120h_%Growth_Rep1): 148%
- activity at 2 µg/mL ([2]; P. falciparum, 120 h, screen at 2 μg/mL, replicate 2, read-out: Pf_120h_%Growth_Rep2): 68.3%
- percent parasite growth at 2 µg/mL ([3]; T. gondii, screen at 2 μg/mL, replicate 1, read-out: Tg_72h_%Growth_Rep1): 89.7%
- percent parasite growth at 2 µg/mL ([3]; T. gondii, screen at 2 μg/mL, replicate 2, read-out: Tg_72h_%Growth_Rep2): 98.2%
